21 compounds from US11939314B2, “Quinolin-2-one derivatives” (MERCK PATENT GMBH, priority 2016, dated 2024) can be followed below.

Counter-ions that a name gives are not always drawn.

Assay [1] concerns the target T1, c-Kit(V654A) (Homo sapiens, UniProt P10721, V654A).
T1 construct: amino acids 544-end containing the V654A mutation; GST (N)
Briefly: c-Kit(V654A) assay. In kind it is biochemical. The note with it: recombinant human c-Kit aa 544-end, 200 μM ATP, 1.4E-06 means 1.4×10^−6, read-out: Inhibition (IC50) of c-KIT (V654A). In outline: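 Radiometric filter-binding read-out: substrate 33P incorporation counted by scintillation after P30 filtermat washes in 75 mM phosphoric acid and methanol. Enzyme: N-GST recombinant human c-Kit aa 544-end carrying V654A.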

Assay [2] has as its target T2, PDGFRalpha(V561D) (Homo sapiens, UniProt P16234, V561D).
T2 construct: recombinant human PDGFRalpha, amino acids 550end containing the V561 D mutation; 6His (N)
Briefly: PDGFRalpha(V561D) assay. Conditions: recombinant human PDGFRalpha aa 550-end, 200 μM ATP, 1.4E-06 means 1.4×10^−6, read-out: Inhibition (IC50) of PDGFRα (V561D). The class given is biochemical. A digest of the protocol:
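Radiometric filter-binding assay: substrate phosphorylation by recombinant N-His-tagged human PDGFRα 550-end V561D was quenched with 3% phosphoric acid after 40 min at room temperature, then counted.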

T1 sequence (P10721 544-976 V654A): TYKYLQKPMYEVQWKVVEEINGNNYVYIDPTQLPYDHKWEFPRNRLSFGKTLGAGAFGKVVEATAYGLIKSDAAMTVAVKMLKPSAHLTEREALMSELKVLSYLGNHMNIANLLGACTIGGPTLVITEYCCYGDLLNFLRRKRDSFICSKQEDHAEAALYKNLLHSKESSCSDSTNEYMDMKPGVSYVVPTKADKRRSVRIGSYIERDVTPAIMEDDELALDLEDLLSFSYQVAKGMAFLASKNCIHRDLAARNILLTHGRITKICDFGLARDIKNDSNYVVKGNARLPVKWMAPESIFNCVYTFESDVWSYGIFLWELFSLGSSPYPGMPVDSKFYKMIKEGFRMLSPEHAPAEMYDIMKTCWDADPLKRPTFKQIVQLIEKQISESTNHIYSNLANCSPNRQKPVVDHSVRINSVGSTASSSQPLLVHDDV
T2 sequence (P16234 550-1089 V561D): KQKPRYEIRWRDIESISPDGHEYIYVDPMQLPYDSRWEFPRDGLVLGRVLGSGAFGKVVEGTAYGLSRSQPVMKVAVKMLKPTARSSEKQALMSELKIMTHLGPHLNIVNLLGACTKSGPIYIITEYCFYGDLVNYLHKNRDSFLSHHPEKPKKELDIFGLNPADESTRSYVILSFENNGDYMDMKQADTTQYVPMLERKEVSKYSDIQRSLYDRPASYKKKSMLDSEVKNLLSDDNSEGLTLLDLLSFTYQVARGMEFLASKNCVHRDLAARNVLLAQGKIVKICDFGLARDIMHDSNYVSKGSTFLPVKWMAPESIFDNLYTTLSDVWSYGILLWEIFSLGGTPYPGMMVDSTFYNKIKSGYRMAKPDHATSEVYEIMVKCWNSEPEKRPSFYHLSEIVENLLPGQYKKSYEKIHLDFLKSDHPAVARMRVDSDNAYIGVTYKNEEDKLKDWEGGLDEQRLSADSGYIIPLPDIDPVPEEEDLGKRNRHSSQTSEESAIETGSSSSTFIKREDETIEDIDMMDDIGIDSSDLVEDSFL

Regarding `O=C(c1cccc(-n2cc(-c3cc4ccccc4[nH]c3=O)nn2)c1)N1CCOCC1` [A76, 3-{1-[3-(morpholine-4-carbonyl)-phenyl]-1H-[1,2,3]triazol-4-yl}-1H-quinolin-2-one], the IC50 is 49 nM in assay [1] and 30 nM in assay [2].

As to `CCN(CC)CCNC(=O)c1ccc(-n2cc(-c3cc4cc(F)ccc4[nH]c3=O)nn2)cc1` [A196, N-(2-diethylamino-ethyl)-4-[4-(6-fluoro-2-oxo-1,2-dihydro-quinolin-3-yl)-[1,2,3]triazol-1-yl]-benzamide], the IC50 in assay [1] worked out at 44 nM; in assay [2], 110 nM.

With `COc1cccc(-n2cc(-c3cc4ccccc4[nH]c3=O)nn2)c1` [A24, 3-[1-(3-methoxy-phenyl)-1H-[1,2,3]triazol-4-yl]-1H-quinolin-2-one], the results for the half-maximal inhibitory concentration (IC50) in assay [1] and in assay [2] were 110 nM and 26 nM, respectively.

For the compound `NC(=O)[C@H]1CCN(C(=O)c2ccc(-n3cc(-c4cc5cc(F)ccc5[nH]c4=O)nn3)cc2)C1` [A243, (S)-1-{4-[4-(6-fluoro-2-oxo-1,2-dihydro-quinolin-3-yl)-[1,2,3]triazol-1-yl]-benzoyl}-pyrrolidine-3-carboxylic acid amide], the IC50 in assay [1] stood at 30 nM; in assay [2], 14 nM.

`CN1CCN(CCOc2ccc(-n3cc(-c4cc5ccccc5[nH]c4=O)nn3)cc2)CC1` [A72, 3-(1-{4-[2-(4-methyl-piperazin-1-yl)-ethoxy]-phenyl}-1H-[1,2,3]triazol-4-yl)-1H-quinolin-2-one]: the results for the IC50 in assay [1] and in assay [2] were 11 nM and 4 nM, respectively.

For `O=c1[nH]c2cc(F)c(F)cc2cc1-c1cn(-c2ccc(OCCC3CCNCC3)cc2)nn1` [A134, 6,7-difluoro-3-{1-[4-(2-piperidin-4-yl-ethoxy)-phenyl]-1H-[1,2,3]triazol-4-yl}-1H-quinolin-2-one], the IC50 worked out at 17 nM in assay [1] and 16 nM in assay [2].

In the case of `O=C(c1ccc(-n2cc(-c3cc4cc(F)c(F)cc4[nH]c3=O)nn2)cc1)N1CCC(OCCN2CCOCC2)C1` (stereo not drawn) [A221, 6,7-difluoro-3-(1-{4-[3-(2-morpholin-4-yl-ethoxy)-pyrrolidine-1-carbonyl]-phenyl}-1H-[1,2,3]triazol-4-yl)-1H-quinolin-2-one], the IC50 in assay [1] was found to be 200 nM; in assay [2] it was 380 nM.

With `CN[C@@H]1CCN(C(=O)c2ccc(-n3cc(-c4cc5cc(F)ccc5[nH]c4=O)nn3)cc2)C1` [A311, 6-Fluoro-3-{1-[4-((R)-3-methylamino-pyrrolidine-1-carbonyl)-phenyl]-1H-[1,2,3]triazol-4-yl}-1H-quinolin-2-one hydrochloride], the IC50 is 21 nM in assay [1] and 310 nM in assay [2].

As to `CO[C@H]1CC[C@@H](Oc2ccc(-n3cc(-c4cc5cc(F)ccc5[nH]c4=O)nn3)cc2)C1` (stereo in doubt) [A355, 6-Fluoro-3-{1-[4-((trans)-3-methoxy-cyclopentyloxy)-phenyl]-1H-[1,2,3]triazol-4-yl}-1H-quinolin-2-one], the IC50 in assay [1] worked out at 89 nM; in assay [2], 1600 nM.

`O=C(Cn1ccc2cc(-n3cc(-c4cc5cc(F)c(F)cc5[nH]c4=O)nn3)ccc21)N1CCNCC1` [A139, 6,7-difluoro-3-{1-[1-(2-oxo-2-piperazin-1-yl-ethyl)-1H-indol-5-yl]-1H-[1,2,3]triazol-4-yl}-1H-quinolin-2-one]: the IC50 in assay [1] turned out to be 12 nM; in assay [2], 3800 nM.

As to `CO[C@H]1CN(C(=O)c2ccc(-n3cc(-c4cc5cc(F)ccc5[nH]c4=O)cn3)cc2)C[C@@H]1OC` [A303, 3-{1-[4-((3S,4S)-3,4-dimethoxy-pyrrolidine-1-carbonyl)-phenyl]-1H-pyrazol-4-yl}-6-fluoro-1H-quinolin-2-one], the values for the IC50 in assay [1] and in assay [2] were 37 nM and 6 nM, respectively.

For `O=C(c1ccc(-n2cc(-c3cc4cc(F)ccc4[nH]c3=O)nn2)cc1)N1CCC[C@H]1CN1CCCC1` [A279, 6-fluoro-3-{1-[4-((S)-2-pyrrolidin-1-ylmethyl-pyrrolidine-1-carbonyl)-phenyl]-1H-[1,2,3]triazol-4-yl}-1H-quinolin-2-one], the IC50 in assay [1] was found to be 14 nM; in assay [2], 0.72 nM.

`CO[C@@H]1C[C@H](CO)N(C(=O)c2ccc(-n3cc(-c4cc5cc(F)ccc5[nH]c4=O)nn3)cc2)C1` [A244, 6-fluoro-3-{1-[4-((2R,4R)-2-hydroxymethyl-4-methoxy-pyrrolidine-1-carbonyl)-phenyl]-1H-[1,2,3]triazol-4-yl}-1H-quinolin-2-one]: the IC50 in assay [1] came to 36 nM; in assay [2] it was 13 nM.

Turning to `CN(C)C[C@H]1CCN(C(=O)c2ccc(-n3cc(-c4cc5cc(F)ccc5[nH]c4=O)nn3)cc2)C1` [A334, 3-{1-[4-((R)-3-dimethylaminomethyl-pyrrolidine-1-carbonyl)-phenyl]-1H-[1,2,3]triazol-4-yl}-6-fluoro-1H-quinolin-2-one], the figures for the IC50 in assay [1] and in assay [2] were 15 nM and 41 nM, respectively.

Turning to `CO[C@H]1CN(C(=O)c2ccc(-n3cc(-c4cc5cc(Cl)ccc5[nH]c4=O)nn3)cc2)C[C@@H]1OC` [A272, 6-chloro-3-{1-[4-((3S,4S)-3,4-dimethoxy-pyrrolidine-1-carbonyl)-phenyl]-1H-[1,2,3]triazol-4-yl}-1H-quinolin-2-one], the IC50 in assay [1] worked out at 48 nM; in assay [2] it was 0.89 nM.

As for `O=C(c1ccc(-n2cc(-c3cc4cccc(F)c4[nH]c3=O)nn2)cc1)N1CCNCC1` [A120, 8-fluoro-3-{1-[4-(piperazine-1-carbonyl)-phenyl]-1H-[1,2,3]triazol-4-yl}-1H-quinolin-2-one], the IC50 in assay [1] stood at 280 nM; in assay [2], 230 nM.

As to `CO[C@H]1CCCN(C(=O)c2ccc(-n3cc(-c4cc5cc(F)ccc5[nH]c4=O)nn3)cc2)C1` [A195, 6-fluoro-3-{1-[4-((S)-3-methoxy-piperidine-1-carbonyl)-phenyl]-1H-[1,2,3]triazol-4-yl}-1H-quinolin-2-one], the IC50 turned out to be 68 nM in assay [1] and 93 nM in assay [2].

With `CCN(CC)CCOC1CCN(C(=O)c2ccc(-n3cc(-c4cc5cc(F)ccc5[nH]c4=O)nn3)cc2)C1` (stereo not drawn) [A203, 3-(1-{4-[3-(2-diethylamino-ethoxy)-pyrrolidine-1-carbonyl]-phenyl}-1H-[1,2,3]triazol-4-yl)-6-fluoro-1H-quinolin-2-one], the figures for the IC50 in assay [1] and in assay [2] were 36 nM and 490 nM, respectively.

In the case of `O=C(c1ccc(-n2cc(-c3cc4cc(F)ccc4[nH]c3=O)nn2)cc1)N1CCC(CO)C1` (stereo not drawn) [A206, 6-fluoro-3-{1-[4-(3-hydroxymethyl-pyrrolidine-1-carbonyl)-phenyl]-1H-[1,2,3]triazol-4-yl}-1H-quinolin-2-one], the IC50 in assay [1] was 24 nM; in assay [2], 48 nM.

As to `CN1CCN(C(=O)c2ccc(-n3cc(-c4cc5ccccc5[nH]c4=O)nn3)cc2)CC1` [A57, 3-{1-[4-(4-methyl-piperazine-1-carbonyl)-phenyl]-1H-[1,2,3]triazol-4-yl}-1H-quinolin-2-one], the IC50 was 15 nM in assay [1] and 6 nM in assay [2].

Take `O=C(c1ccc(-n2cc(-c3cc4cc(F)ccc4[nH]c3=O)nn2)cc1)N1CCC(F)(F)C1` [A267, 3-{1-[4-(3,3-difluoro-pyrrolidine-1-carbonyl)-phenyl]-1H-[1,2,3]triazol-4-yl}-6-fluoro-1H-quinolin-2-one]: the IC50 came out at 17 nM in assay [1] and 1.4 nM in assay [2].
